Entries after “also recorded” stand apart in the source; their conditions may differ.
Legend:
[1] = tested on: endothelial cells; assay: CoCl2-induced apoptosis of endothelial cells (Annexin-FITC/PI FACS); format: cell-based, human; settings: 24 hours CoCl2 treatment, normoxia about 27%
Protocol: FIGS. 33a-f are representative FACS analyses depicting a specific inhibition of hypoxia-induced apoptosis of endothelial cells by ADOPep1. Endothelial cells in Petri dishes were incubated for 24 hours with 5% FCS in supplement-free endothelial cell growth medium under normoxia (FIGS. 33a and d), exposed to 24 hours hypoxia (Figures c and f) or incubated under normoxia with 100 micromolar per 100,000 cells CoCl2 (FIGS. 33b and e), in the absence (FIGS. 33a-c) or presence (FIGS. 33d-f) of 10 ng/ml Adopep1 peptide (for 24 hours). Cells were trypsinized and immediately re-suspended in PBS with 5% FCS and 0.1% Na-azide. Samples containing 100,000 cells were tested for apoptosis using the Annexin-FITC (X axis) and propidium iodide (Y axis) kit (Bender Medsystems, Vienna, Austria), according to manufacturer's instructions. Results were analyzed by FACScan (Beckton Dickinson).
FIG. 34 is a histogram depicting the FACS results of the experiments described in FIGS. 33a-f. Data represents average±SD of 2 experiments.

[2] = tested on: GRP78 receptor on endothelial cells; assay: Competitive binding of ADOPeps to GRP78 (anti-GRP78 antibody ELISA on endothelial cells); design: species or system human; settings: summary of 4 experiments
Protocol: FIG. 19 is a graph depicting inhibition of binding (in percentages) of anti-GRP78 antibody to endothelial cells by increasing concentrations of ADOPep1, 2, and 3 peptides. Endothelial cells were incubated for 2 hours with increasing concentrations of ADOPeps, following which the cells were incubated for another 1 hour with the 2 μg/ml of anti-GRP78 antibody and the amount of bound antibody on EC was detected using an ELISA reader.
Endothelial cells (20,000 per well) were seeded in 96 well plates for 24 hours in the presence of the complete medium. Plates were washed with PBS over night and rehydrated with PBS, 0.1% Na Azide and 5% FCS. ADOPep1, ADOPep2 and ADOPep3 were added to washed plates for 2 hours at room temperature at concentrations of 0.01, 0.1 and 1 microgram per ml. Anti-GRP78 antibody (goat polyclona IgG, Santa Cruz Biotechnology, Calif., USA) was added to the plates for 1 hour at room temperature at a concentration of 2 micrograms/ml per well. After washing, bound anti-GRP78 antibody was detected by incubation with anti-goat IgG Peroxidase conjugated (Jackson Immuneresearch Laboratories, PA, USA). After 5 washes with PBS-0.1% Tween 20, 100 μl/well of TMB+ Substrate-Chromogen (DAKOCytomation, CA, USA) was added for a maximum of 30 minutes. Reaction was stopped with 1N HCl. Color developed was determined by an ELISA reader at 450 nm.

[3] = tested on: ERK½; assay: ERK½ phosphorylation in endothelial cells under hypoxia (Western blot, densitometry); format: cell-based, human; settings: for ERK½ phosphorylation (in words): endothelial cells under hypoxia, 10 ng/ml
Protocol: FIGS. 30a-b are Western blot analyses depicting induction of phosphorylation of ERK by ADoPep1 and Motif A. Endothelial cells under starvation conditions and 5 hours hypoxia were incubated for 5 (lanes 2 and 6), 20 (lanes 3 and 7), 30 (lanes 4 and 8) and 60 (lanes 5 and 9) minutes with 10 ng/ml ADoPep1 (Lanes 2-5) or Motif A (lanes 6-9) peptides or remained under hypoxia without a further incubation with a peptide (lane 1). After incubation, lysates were prepared, subject to SDS-PAGE and blotting on a nitrocellulose membrane. Western Blot analysis was performed using anti-Phospho ERK½ antibody. […] FIG. 30a—Experiment 1; FIG. 30b—Experiment 2. The percent adjusted volume as determined by a densitometric analysis software to compare net band densities was as follows: FIG. 30a, lane 1-4.5, lane 2-9.3, lane 3-13.7, lane 4-13.3, lane 5-11.2, lane 6-10.7, lane 7-12.4, lane 8-12.3 and lane 9-12.4; FIG. 30b, lane 1-4.21, lane 2-12.4, lane 3-12.5, lane 4-14.8, lane 5-10.9, lane 6-14.9, lane 7-9.8, lane 8-12.7 and lane 9-7.8.
FIG. 31 is a Western blot analysis depicting the level of phosphorylated ERK (pERK) in endothelial cells activated for 20 minutes with ADOPep1 and motif A and inhibited by pERK-inhibitor peptide. Endothelial cells (from cord 1) under starvation conditions and 5 hours hypoxia were incubated with 10 ng/ml ADOPep1 (lanes 3 and 4) or motif A (lanes 1 and 2) peptides in the presence (lanes 2 and 4) or absence (lanes 1 and 3) of p-ERK-inhibitor peptide (Santa Cruz). For control, the endothelial cells under starvation conditions and 5 hours hypoxia (lane 5) were also incubated with the p-ERK-inhibitor peptide (lane 6). […] The percent adjusted volume as determined by a densitometric analysis software to compare net band densities was as follows: lane 1-19, lane 2-14, lane 3-14, lane 4-8.8, lane 5-11, lane 6-2.1.
FIGS. 32a-b are Western blot analyses depicting the effect of ADOPeps on the level of phosphorylated ERK. Endothelial cells (EC) from cord 1 (FIG. 32a) or cord 2 (FIG. 32b) under hypoxia (5 hours) were incubated for 20 or 30 minutes with 10 ng/ml of AdoPep1, AdoPep2 and AdoPep3 or remained untreated (i.e., under hypoxia without any peptide). Western Blot analyses of samples cell lysates were performed with anti Phospho ERK antibody on nitrocellulose membranes. […] The percent adjusted volume as determined by a densitometric analysis software to compare net band densities was as follows: FIG. 32a, lane 1-11, lane 2-13, lane 3-11, lane 4-5, lane 5-11, lane 6-13, lane 7-17, lane 8-16.7; FIG. 32b, lane 1-17, lane 2-22, lane 3-19, lane 4-7, lane 5-8, lane 6-13, lane 7-14, lane 8-1.

[4] = tested on: endothelial cells (HUVEC); assay: Proliferation of endothelial cells under hypoxia ([H3]Thymidine incorporation); format: cell-based, human; settings: 24 hours starvation, 10 ng/ml
Protocol: FIG. 5 is a graph depicting cell proliferation as a function of ADOPeps' concentration. Proliferation of endothelial cells (EC) under hypoxia conditions was measured by [H^3]Thymidine incorporation. Endothelial cells (12,000/well) in minimal growth medium were incubated for 24 hours in the presence of 1, 10 and 100 ng/ml of ADOPep1 (SEQ ID NO:2; red diamonds), 2 (SEQ ID NO:3; blue squares) and 3 (SEQ ID NO:4; green triangles) peptides.
HUVEC from passage 3 were used for proliferation experiments. Endothelial cells (15,000 cells/well) were seeded on 24-wells in the presence of endothelial cell growth medium (Promocell, Heidelberg, Germany) with supplements and incubated for 24 hours. After then, cells were exposed to 24 hours starvation in a medium free of supplements. ADOPeps were added at concentrations of 1, 10 and 100 ng/ml for 24 hours under hypoxic conditions. 2 μCi/well of Thymidine (SIGMA, Rehovot Israel) were added or over night incubation followed by 3 washes with PBS before harvesting at 37° C. with 300 μl/well of 0.5 M NaOH. Cell lysates were transferred to scintillation vials with 2 ml scintillation liquid Ultima Gold (Packard Bioscience, Meriden, USA) and counted in a β counter. Results were obtained as counts per minute (cpm).

[5] = tested on: endothelial cells; assay: Tube formation of endothelial cells on Cultrex Basement Membrane Extract; format: cell-based, human; settings: 10 ng/ml, 18 hours, starvation and normoxic conditions
Protocol: FIG. 27 is a graph depicting induction of tube formation using AdoPep1 and Motif A (SEQ ID NO:7) but not the scrambled sROY peptide. Endothelial cells were incubated in media without supplements for 24 hours, and 50,000 cells were then transferred in 500 μl medium to 24-well plates precoated with 250 μl Cultrex Basement Membrane Extract (with reduced growth factors) (R&D Systems, Minneapolis, Minn., USA). AdoPep1, Motif A and scrambled sROY peptides were added at an optimal concentration of 10 ng/ml (based on preliminary findings), and the slides were examined by light microscopy after 18 hours incubation. The results represent average±SD of three experiments using 3 different cords. The length of the network of connected cells (tube formation) was measured in micrometers in 5 different areas of each well using Image-Pro Plus Image software (Media Cybernetics, Silver Spring, Md., USA).

[6] = FIG. 32a cord 1, 10 ng/ml, 20 minutes, untreated 11, 13
[7] = FIG. 32a cord 1, 10 ng/ml, 30 minutes, untreated 11, 13
[8] = FIG. 32b cord 2, 10 ng/ml, 20 minutes, untreated 17
[9] = FIG. 32b cord 2, 10 ng/ml, 30 minutes, untreated 8

Molecule	level of apoptosis [1] [%]	inhibition of binding of anti-GRP78 antibody to EC (in words) [2]	percent adjusted volume of phospho ERK band [3, 6] [%]	percent adjusted volume of phospho ERK band [3, 7] [%]	percent adjusted volume of phospho ERK band [3, 8] [%]	percent adjusted volume of phospho ERK band [3, 9] [%]	ERK½ phosphorylation (in words) [3]	proliferation of endothelial cells [4]	tube formation (length of the network of connected cells) ([5]; listed as scrambled sROY)	tube formation (length of the network of connected cells) ([5]; listed as scrambled sROY peptide)
[Cl][Co][Cl] [CoCl2, Cobalt-Chloride, reference compound]	~67									
AVTLENFLHWRR [ADOPep3, ADAM15 derived peptide]		some degree of inhibition	11	5	7	1	had not effect on ERK½ phosphorylation			
ENFLHWRRAHLL [ADOPep2, ADAM15 derived peptide]		some degree of inhibition	11	13	19	14	induced ERK½ phosphorylation; also recorded: increase in ERK½ phosphorylation	capable of inducing proliferation of EC		
RYHLIPRGWDHS [sRoY, scrambled control peptide, reference compound]		not effective; also recorded: no specific inhibition effect							did not induced tube formation	no effect on tube formation
